# From article PMC9668928, “Zandelisib (ME-401) in Japanese patients with relapsed or refractory indolent non-Hodgkin’s lymphoma: an open-label, multicenter, dose-escalation phase 1 study” (International Journal of Hematology, 2022)
# System: Japanese patients with R/R iNHL
# Assay: Phase 1 dose-escalation study: safety and tolerability (TEAEs, DLTs)
# Format: in vivo
# Description: Japanese patients aged ≥ 20 years with R/R iNHL histologically confirmed as FL, nodal MZL, extra-nodal MZL of mucosa-associated lymphoid tissue, small lymphocytic lymphoma, lymphoplasmacytic lymphoma, Waldenström’s macroglobulinemia, or equivalent, according to World Health Organization classification, were eligible for this study. Other key eligibility criteria included being PI3K inhibitor therapy-naïve and an Eastern Cooperative Oncology Group performance status of 0 or 1. Further details of inclusion and exclusion criteria are provided in Supplementary Table 1.
# This was a multicenter, open-label, dose-escalation, phase 1 study in Japan. All patients received oral zandelisib once daily at the same time each day, at least 1 h before or 2 h after a meal (CS: continuous schedule). Each treatment cycle was 28 days. Definitions of the DLTs described in this study can be found in Supplementary Table 2. The observation period for DLTs was from day 1 of Cycle 1 to day 1 of Cycle 2. Zandelisib was administered until disease progression or unacceptable toxicity. In the event of an AE, patients could be switched to IDT. In the case of disease progression while receiving IDT, patients could be switched back to CS per the investigator’s discretion.
# A starting dose of 45 mg was set for investigating patient safety. This study adopted a standard 3 + 3 design. […] If DLTs occurred in 2 or more patients, the study was planned to be suspended pending a safety evaluation. If a DLT occurred in 1 patient, 3 further patients were added to cohort 1. If DLTs occurred in 0/3 or 1/6 patients in cohort 1, dosing in cohort 2 commenced (n = 6; 60 mg/day). If the incidence of DLTs in cohort 2 was ≤ 1/6, the maximum tolerated dose was not determined, and the dose in cohort 2 was to be selected as the recommended Japanese phase 2 dose.
# The primary endpoint was the safety [number of patients with treatment-emergent adverse events (TEAEs), based on Common Terminology Criteria for Adverse Events version 5.0] and tolerability (including laboratory values, vital signs, and electrocardiogram performance) of zandelisib in Japanese patients. Hepatobiliary disorder, aspartate/alanine (AST/ALT) increased, diarrhea/colitis, organizing pneumonia, stomatitis, or rash were defined as irAEs in this manuscript. Secondary endpoints included PK (plasma concentrations and PK parameters) and the efficacy of zandelisib. […] The PK parameters for Cycle 1 day 1 and Cycle 2 day 1 were calculated for each patient by non-compartmental analysis. PK parameters included maximum plasma drug concentration (Cmax), area under the plasma concentration–time curve (AUC) from time zero to the last measurable point (AUC0–t), the AUC from time zero to infinity (AUC0-inf), and terminal half-life (t1/2).
smiles,measurement,setting,value
CN1CCC(c2ccccc2CC(C)(C)Nc2nc(N3CCOCC3)nc(-n3c(C(F)F)nc4ccccc43)n2)CC1 [zandelisib],"TEAE Oropharyngeal pain, Grade ≥ 3","45 mg, n = 3",0 n (%)
same,"TEAE Pancreatitis, All grades","45 mg, n = 3",1 (33.3) n (%)
same,"TEAE Pancreatitis, Grade ≥ 3","45 mg, n = 3",1 (33.3) n (%)
same,"TEAE Pharyngeal paresthesia, All grades","45 mg, n = 3",0 n (%)
same,"TEAE Pharyngeal paresthesia, Grade ≥ 3","45 mg, n = 3",0 n (%)
same,"TEAE Pruritus, All grades","45 mg, n = 3",0 n (%)
same,"TEAE Pruritus, Grade ≥ 3","45 mg, n = 3",0 n (%)
same,"TEAE Psychiatric disorders (SOC), All grades","45 mg, n = 3",1 (33.3) n (%)
same,"TEAE Psychiatric disorders (SOC), Grade ≥ 3","45 mg, n = 3",0 n (%)
same,"TEAE Rash maculopapular, All grades","45 mg, n = 3",1 (33.3) n (%)
same,"TEAE Rash maculopapular, Grade ≥ 3","45 mg, n = 3",0 n (%)
same,"TEAE Rash, All grades","45 mg, n = 3",1 (33.3) n (%)
same,"TEAE Rash, Grade ≥ 3","45 mg, n = 3",0 n (%)
same,"TEAE Renal and urinary disorders (SOC), All grades","45 mg, n = 3",1 (33.3) n (%)
same,"TEAE Renal and urinary disorders (SOC), Grade ≥ 3","45 mg, n = 3",0 n (%)
same,"TEAE Renal impairment, All grades","45 mg, n = 3",1 (33.3) n (%)
same,"TEAE Renal impairment, Grade ≥ 3","45 mg, n = 3",0 n (%)
same,"TEAE Respiratory, thoracic, and mediastinal disorders (SOC), All grades","45 mg, n = 3",1 (33.3) n (%)
same,"TEAE Respiratory, thoracic, and mediastinal disorders (SOC), Grade ≥ 3","45 mg, n = 3",1 (33.3) n (%)
same,"TEAE Skin and subcutaneous tissue disorders (SOC), All grades","45 mg, n = 3",3 (100.0) n (%)
same,"TEAE Skin and subcutaneous tissue disorders (SOC), Grade ≥ 3","45 mg, n = 3",0 n (%)
same,"TEAE Stomatitis, All grades","45 mg, n = 3",1 (33.3) n (%)
same,"TEAE Stomatitis, Grade ≥ 3","45 mg, n = 3",1 (33.3) n (%)
same,"TEAE Subcutaneous abscess, All grades","45 mg, n = 3",0 n (%)
same,"TEAE Subcutaneous abscess, Grade ≥ 3","45 mg, n = 3",0 n (%)
same,"TEAE Tinnitus, All grades","45 mg, n = 3",1 (33.3) n (%)
same,"TEAE Tinnitus, Grade ≥ 3","45 mg, n = 3",0 n (%)
same,"TEAE Urticaria, All grades","45 mg, n = 3",1 (33.3) n (%)
same,"TEAE Urticaria, Grade ≥ 3","45 mg, n = 3",0 n (%)
same,"TEAE Vomiting, All grades","45 mg, n = 3",0 n (%)
same,"TEAE Vomiting, Grade ≥ 3","45 mg, n = 3",0 n (%)
same,"TEAE WBC count decreased, All grades","45 mg, n = 3",2 (66.7) n (%)
same,"TEAE WBC count decreased, Grade ≥ 3","45 mg, n = 3",0 n (%)
same,Grade 3 irAEs,60 mg,5 patients
same,"TEAE ALT increased, All grades","60 mg, n = 6",1 (16.7) n (%)
same,"TEAE ALT increased, Grade ≥ 3","60 mg, n = 6",0 n (%)
same,"TEAE AST increased, All grades","60 mg, n = 6",3 (50.0) n (%)
same,"TEAE AST increased, Grade ≥ 3","60 mg, n = 6",0 n (%)
same,"TEAE Abdominal discomfort, All grades","60 mg, n = 6",1 (16.7) n (%)
same,"TEAE Abdominal discomfort, Grade ≥ 3","60 mg, n = 6",0 n (%)
same,"TEAE Abdominal pain upper, All grades","60 mg, n = 6",0 n (%)
same,"TEAE Abdominal pain upper, Grade ≥ 3","60 mg, n = 6",0 n (%)
same,"TEAE Amylase increased, All grades","60 mg, n = 6",0 n (%)
same,"TEAE Amylase increased, Grade ≥ 3","60 mg, n = 6",0 n (%)
same,"TEAE Anemia, All grades","60 mg, n = 6",0 n (%)
same,"TEAE Anemia, Grade ≥ 3","60 mg, n = 6",0 n (%)
same,"TEAE Arthralgia, All grades","60 mg, n = 6",1 (16.7) n (%)
same,"TEAE Arthralgia, Grade ≥ 3","60 mg, n = 6",0 n (%)
same,"TEAE Back pain, All grades","60 mg, n = 6",0 n (%)
same,"TEAE Back pain, Grade ≥ 3","60 mg, n = 6",0 n (%)
same,"TEAE Blepharitis, All grades","60 mg, n = 6",1 (16.7) n (%)
same,"TEAE Blepharitis, Grade ≥ 3","60 mg, n = 6",0 n (%)
same,"TEAE Blood and lymphatic system disorders (SOC), All grades","60 mg, n = 6",0 n (%)
same,"TEAE Blood and lymphatic system disorders (SOC), Grade ≥ 3","60 mg, n = 6",0 n (%)
same,"TEAE Blood creatinine increased, All grades","60 mg, n = 6",1 (16.7) n (%)
same,"TEAE Blood creatinine increased, Grade ≥ 3","60 mg, n = 6",0 n (%)
same,"TEAE Bradycardia, All grades","60 mg, n = 6",0 n (%)
same,"TEAE Bradycardia, Grade ≥ 3","60 mg, n = 6",0 n (%)
same,"TEAE CMV test positive, All grades","60 mg, n = 6",2 (33.3) n (%)
same,"TEAE CMV test positive, Grade ≥ 3","60 mg, n = 6",0 n (%)
same,"TEAE Cardiac disorders (SOC), All grades","60 mg, n = 6",0 n (%)
same,"TEAE Cardiac disorders (SOC), Grade ≥ 3","60 mg, n = 6",0 n (%)
same,"TEAE Conjunctivitis, All grades","60 mg, n = 6",1 (16.7) n (%)
same,"TEAE Conjunctivitis, Grade ≥ 3","60 mg, n = 6",0 n (%)
same,"TEAE Constipation, All grades","60 mg, n = 6",2 (33.3) n (%)
same,"TEAE Constipation, Grade ≥ 3","60 mg, n = 6",0 n (%)
same,"TEAE Cough, All grades","60 mg, n = 6",1 (16.7) n (%)
same,"TEAE Cough, Grade ≥ 3","60 mg, n = 6",0 n (%)
same,"TEAE Decreased appetite, All grades","60 mg, n = 6",0 n (%)
same,"TEAE Decreased appetite, Grade ≥ 3","60 mg, n = 6",0 n (%)
same,"TEAE Diarrhea, All grades","60 mg, n = 6",2 (33.3) n (%)
same,"TEAE Diarrhea, Grade ≥ 3","60 mg, n = 6",2 (33.3) n (%)
same,"TEAE Drug hypersensitivity, All grades","60 mg, n = 6",1 (16.7) n (%)
same,"TEAE Drug hypersensitivity, Grade ≥ 3","60 mg, n = 6",0 n (%)
same,"TEAE Drug-induced liver injury, All grades","60 mg, n = 6",1 (16.7) n (%)
same,"TEAE Drug-induced liver injury, Grade ≥ 3","60 mg, n = 6",1 (16.7) n (%)
same,"TEAE Dry eye, All grades","60 mg, n = 6",0 n (%)
same,"TEAE Dry eye, Grade ≥ 3","60 mg, n = 6",0 n (%)
same,"TEAE Dry skin, All grades","60 mg, n = 6",1 (16.7) n (%)
same,"TEAE Dry skin, Grade ≥ 3","60 mg, n = 6",0 n (%)
same,"TEAE Dysgeusia, All grades","60 mg, n = 6",0 n (%)
same,"TEAE Dysgeusia, Grade ≥ 3","60 mg, n = 6",0 n (%)
same,"TEAE Dyspnea, All grades","60 mg, n = 6",0 n (%)
same,"TEAE Dyspnea, Grade ≥ 3","60 mg, n = 6",0 n (%)
same,"TEAE Ear and labyrinth disorders (SOC), All grades","60 mg, n = 6",0 n (%)
same,"TEAE Ear and labyrinth disorders (SOC), Grade ≥ 3","60 mg, n = 6",0 n (%)
same,"TEAE Eczema, All grades","60 mg, n = 6",1 (16.7) n (%)
same,"TEAE Eczema, Grade ≥ 3","60 mg, n = 6",0 n (%)
same,"TEAE Eosinophil count increased, All grades","60 mg, n = 6",0 n (%)
same,"TEAE Eosinophil count increased, Grade ≥ 3","60 mg, n = 6",0 n (%)
same,"TEAE Erythema multiforme, All grades","60 mg, n = 6",1 (16.7) n (%)
same,"TEAE Erythema multiforme, Grade ≥ 3","60 mg, n = 6",0 n (%)
same,"TEAE Eye disorders (SOC), All grades","60 mg, n = 6",1 (16.7) n (%)
same,"TEAE Eye disorders (SOC), Grade ≥ 3","60 mg, n = 6",0 n (%)
same,"TEAE Flank pain, All grades","60 mg, n = 6",1 (16.7) n (%)
same,"TEAE Flank pain, Grade ≥ 3","60 mg, n = 6",0 n (%)
same,"TEAE GGT increased, All grades","60 mg, n = 6",1 (16.7) n (%)
same,"TEAE GGT increased, Grade ≥ 3","60 mg, n = 6",1 (16.7) n (%)
same,"TEAE Gastrointestinal disorders (SOC), All grades","60 mg, n = 6",4 (66.7) n (%)
same,"TEAE Gastrointestinal disorders (SOC), Grade ≥ 3","60 mg, n = 6",2 (33.3) n (%)
same,"TEAE General disorders and administration site conditions (SOC), All grades","60 mg, n = 6",0 n (%)
same,"TEAE General disorders and administration site conditions (SOC), Grade ≥ 3","60 mg, n = 6",0 n (%)
same,"TEAE Hepatic function abnormal, All grades","60 mg, n = 6",1 (16.7) n (%)
same,"TEAE Hepatic function abnormal, Grade ≥ 3","60 mg, n = 6",1 (16.7) n (%)
same,"TEAE Hepatobiliary disorders (SOC), All grades","60 mg, n = 6",2 (33.3) n (%)
same,"TEAE Hepatobiliary disorders (SOC), Grade ≥ 3","60 mg, n = 6",2 (33.3) n (%)
same,"TEAE Herpes simplex, All grades","60 mg, n = 6",0 n (%)
same,"TEAE Herpes simplex, Grade ≥ 3","60 mg, n = 6",0 n (%)
same,"TEAE Herpes zoster, All grades","60 mg, n = 6",1 (16.7) n (%)
same,"TEAE Herpes zoster, Grade ≥ 3","60 mg, n = 6",0 n (%)
same,"TEAE Hypoesthesia, All grades","60 mg, n = 6",0 n (%)
same,"TEAE Hypoesthesia, Grade ≥ 3","60 mg, n = 6",0 n (%)
same,"TEAE Hypogammaglobulinemia, All grades","60 mg, n = 6",0 n (%)
same,"TEAE Hypogammaglobulinemia, Grade ≥ 3","60 mg, n = 6",0 n (%)
same,"TEAE Immune system disorders (SOC), All grades","60 mg, n = 6",1 (16.7) n (%)
same,"TEAE Immune system disorders (SOC), Grade ≥ 3","60 mg, n = 6",0 n (%)
